The values below come from patent US8735584B2 (Merck Patent GmbH, priority 2008, dated 2014).

Broadly, the IC50 is the concentration that gives 50% inhibition.

A value given as a limit tells only on which side of the number the result lay.

The target in the assay is T1, GST-Aurora A (Homo sapiens, UniProt O14965).
T1 construct: N-terminal GST fusion with full length Aurora A (1-403 amino acids); purchased Carna Biosciences 05-101
T1 sequence (O14965 1-403): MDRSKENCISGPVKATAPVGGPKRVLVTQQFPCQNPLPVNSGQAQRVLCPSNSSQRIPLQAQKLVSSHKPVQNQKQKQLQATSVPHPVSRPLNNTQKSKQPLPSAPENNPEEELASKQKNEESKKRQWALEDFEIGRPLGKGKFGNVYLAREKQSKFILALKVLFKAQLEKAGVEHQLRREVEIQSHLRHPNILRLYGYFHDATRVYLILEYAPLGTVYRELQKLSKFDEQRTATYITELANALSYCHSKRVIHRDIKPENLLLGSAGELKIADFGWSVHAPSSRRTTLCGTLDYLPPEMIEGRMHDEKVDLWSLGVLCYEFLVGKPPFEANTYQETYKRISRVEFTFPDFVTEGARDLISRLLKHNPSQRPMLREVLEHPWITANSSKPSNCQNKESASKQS
Description: Aurora A IC50, Caliper LC3000 mobility shift assay. The class given is biochemical. To be noted: LC3000 method; 15 uM ATP (the KM value); read-out: Aurora Kinase A Activity (IC50). The procedure: The Aurora assays described here are performed on two Caliper Life Sciences systems: the LC3000 and the Desktop Profiler. These provide data on enzyme activity via measurement of the relative amounts of phosphorylated or unphosphorylated fluorescently labelled substrate peptide at the end of an enzymatic reaction. These different states of peptide are resolved by applying a potential difference across the sample. The presence of the charged phosphate group on the product (as opposed to the substrate) causes a different peptide mobility between the two peptides. This is visualized by excitation of the fluorescent label on the substrate and product peptides and represented as peaks within the analysis software.
In order to measure inhibitor activity of Aurora A inhibitors in the Caliper Life Sciences LC3000, a TTP Mosquito liquid handling instrument is used to place 0.25 ul of the appropriate concentration of inhibitor in 100% DMSO (for a dose response curve calculation) into each well of a 384-well plate. To this reaction components are added to a final volume of 25 ul: • 0.067 ng/ul GST-Aurora A (Carna Biosciences 05-101. N-terminal GST fusion with full length Aurora A (1-403 amino acids), accession number NP 940835.1). • 15 uM ATP (Fluke, 02055) • 1 mM DTT (Sigma, D0632) • 1 mM MgCl2 (Sigma, M1028) • 1 uM substrate peptide (sequence FITC-LRRASLG-(CONH2), synthesized by Tufts Peptide Synthesis service. • 100 mM HEPES pH 7.5 (Calbiochem, 391338) • 0.015% Brij-35 (Sigma, B4184)
The reaction is incubated for 90 min at 25 C, and then stopped by the addition of 70 ul of Stop buffer (100 mM HEPES pH 7.5, 0.015% Brij-35, 10 mM EDTA (Sigma, E7889)).
The plate is read on a Caliper LC3000 in an Off-Chip mobility shift assay format, using the following parameters for a 12-sipper chip: screening pressure—1.8 psi, upstream voltage—2700, downstream voltage—1000. These conditions cause unphosphorylated substrate and phosphorylated product peptide to resolve as separate peaks allowing direct measurement of percentage of conversion of substrate to product. The percent conversion can be plotted against concentration of inhibitor to produce a sigmoidal dose response curve, from which an 1050 can be calculated using XLFit for Microsoft Excel.
In the desired wells of a 384-well plate, Aurora A (0.067 ng/ul) was incubated with 15 uM ATP (the KM value), 1 mM DTT, 1 mM MgCl2, and 1 uM peptide substrate (sequence FITC-LRRASLG-(CONH2), FITC=fluorescein isothiocyanate) in 100 mM HEPES pH 7.5 and 0.015% Brij-35 buffer. The reaction was incubated for 90 min at 25 C, and then stopped by the addition of 45 ul of Stop buffer (100 mM HEPES ph 7.5, 0.015% Brij-35, 10 mM EDTA).
The plate was read in a Caliper LC 3000 in an Off-Chip mobility shift assay format, using the following parameters: screening pressure—1.8 psi, upstream voltage—2700, downstream voltage—1000. These conditions cause unphosphorylated substrate peptide to resolve as a peak before that of the phosphorylated peptide product.
In the following table “+” means >100 nM, “++” means 11-100 nM, and “+++” means <11 nM.
For `O=C(Nc1ccc(Nc2ccnc3[nH]c(=O)c4ccccc4c23)cc1)c1cc(F)cc(C(F)(F)F)c1` [Compound 396, 3-Fluoro-N-[4-(6-oxo-5,6-dihydro-benzo[c][1,8]naphthyridin-1-ylamino)-phenyl]-5-trifluoromethyl-benzamide], the 50% inhibitory concentration (IC50) is less than 0.011 µM.

With `CN1CCN(Cc2ccccc2C(=O)Nc2ccc(Nc3ccnc4[nH]c(=O)c5ccccc5c34)cc2)CC1` [Compound 355, 2-((4-Methylpiperazin-1-yl)methyl)-N-(4-(6-oxo-5,6-dihydrobenzo[c][1,8]naphthyridin-1-ylamino)phenyl)benzamide], the half-maximal inhibitory concentration (IC50) was more than 0.1 µM.

In the case of `O=C(Nc1ccc(Nc2ccnc3[nH]c(=O)c4ccccc4c23)cc1)C1CCCCC1` [Compound 386, Cyclohexanecarboxylic acid-[4-(6-oxo-5,6-dihydro-benzo[c][1,8]naphthyridin-1-ylamino)-phenyl]-amide], the IC50 was less than 0.011 µM.

For `CN(C)CCNC(=O)c1ccc2c(c1)c(=O)[nH]c1nccc(Nc3ccc(NC(=O)c4ccccc4)cc3)c12` [Compound 270, 1-(4-Benzamidophenylamino)-N-(2-(dimethylamino)ethyl)-6-oxo-5,6-dihydrobenzo[c][1,8]naphthyridine-8-carboxamide], the concentration for half-maximal inhibition (IC50) lay within 0.011 to 0.1 µM.

Take `O=c1[nH]c2nccc(Oc3ccc(NS(=O)(=O)c4cccc(Cl)c4Cl)cc3)c2c2ccccc12` [Example 173, 2,3-Dichloro-N-[4-(6-oxo-5,6-dihydro-benzo[c][1,8]naphthyridin-1-yloxy)-phenyl]-benzenesulfonamide]: the IC50 lay within 0.011 to 0.1 µM.

With `O=C(Nc1ccc(CNc2ccnc3[nH]c(=O)c4ccccc4c23)cc1)c1ccccc1` [Compound 325, N-(4-((6-Oxo-5,6-dihydrobenzo[c][1,8]naphthyridin-1-ylamino)methyl)phenyl)benzamide], the half-maximal inhibitory concentration (IC50) was in the range of 0.011 to 0.1 µM.

In the case of `O=C(CC(F)(F)F)Nc1ccc(Nc2ccnc3[nH]c(=O)c4ccccc4c23)cc1` [Compound 349, 3,3,3-Trifluoro-N-(4-(6-oxo-5,6-dihydrobenzo[c][1,8]naphthyridin-1-ylamino)phenyl)propanamide], the 50% inhibitory concentration (IC50) is less than 0.011 µM.

For the compound `O=c1[nH]c2ncccc2c2cc(Nc3ccccc3F)ccc12` [Example 32, 9-(2-Fluoro-phenylamino)-5H-benzo[c][1,8]naphthyridin-6-one], the IC50 is more than 0.1 µM.

As for `O=c1[nH]c2ncccc2c2cc(NCc3cccc4ccccc34)ccc12` [Example 45, 9-[(Naphthalen-1-ylmethyl)-amino]-5H-benzo[c][1,8]naphthyridin-6-one], the half-maximal inhibitory concentration (IC50) is more than 0.1 µM.

As to `O=C(NCC(O)CO)c1ccc2c(c1)c(=O)[nH]c1nccc(Nc3ccc(NC(=O)c4ccccc4)cc3)c12` (stereo not shown) [Compound 272, 1-(4-Benzamidophenylamino)-N-(2,3-dihydroxypropyl)-6-oxo-5,6-dihydrobenzo[c][1,8]naphthyridine-8-carboxamide], the concentration for half-maximal inhibition (IC50) is less than 0.011 µM.

As to `O=C(CN1CCC(Nc2ccnc3[nH]c(=O)c4ccccc4c23)CC1)NC1CC1` [Compound 488, N-Cyclopropyl-2-(4-(6-oxo-5,6-dihydrobenzo[c][1,8]naphthyridin-1-ylamino)piperidin-1-yl)acetamide], the IC50 was more than 0.1 µM.

Turning to `CN1CCC(C(=O)Nc2ccc(Nc3ccnc4[nH]c(=O)c5ccccc5c34)cc2)CC1` [Compound 346, 1-Methyl-N-(4-(6-oxo-5,6-dihydrobenzo[c][1,8]naphthyridin-1-ylamino)phenyl)piperidine-4-carboxamide], the 50% inhibitory concentration (IC50) is more than 0.1 µM.

On to `O=C(Nc1ccc(Nc2ccnc3[nH]c(=O)c4ccccc4c23)cc1)c1ccc(Cl)cc1` [Compound 389, 4-Chloro-N-[4-(6-oxo-5,6-dihydro-benzo[c][1,8]naphthyridin-1-ylamino)-phenyl]-benzamide], for which the concentration for half-maximal inhibition (IC50) is less than 0.011 µM.

On to `CN1CCN(CCNC(=O)c2ccc3c(c2)c(=O)[nH]c2nccc(Nc4ccc(NC(=O)c5ccccc5)cc4)c23)CC1` [Compound 271, 1-(4-Benzamidophenylamino)-N-(2-(4-methylpiperazin-1-yl)ethyl)-6-oxo-5,6-dihydrobenzo[c][1,8]naphthyridine-8-carboxamide], for which the concentration for half-maximal inhibition (IC50) was in the range of 0.011 to 0.1 µM.

As for `O=C(Nc1ccc(Nc2ccnc3[nH]c(=O)c4ccc(CO)cc4c23)cc1)c1ccccc1` [Compound 279, N-(4-(9-(Hydroxymethyl)-6-oxo-5,6-dihydrobenzo[c][1,8]naphthyridin-1-ylamino)phenyl)benzamide], the IC50 is less than 0.011 µM.

With `O=C(Nc1ccc(Nc2ccnc3[nH]c(=O)c4ccc(F)cc4c23)cc1)c1cccc(F)c1F` [Compound 418, 2,3-Difluoro-N-[4-(9-fluoro-6-oxo-5,6-dihydro-benzo[c][1,8]naphthyridin-1-ylamino)-phenyl]-benzamide], the IC50 is less than 0.011 µM.

`O=c1[nH]c2ncccc2c2cc(NCc3ccccc3Cl)ccc12` [Compound 470, 9-(2-Chlorobenzylamino)benzo[c][1,8]naphthyridin-6(5H)-one]: the IC50 lay within 0.011 to 0.1 µM.

Regarding `CN(C)CCNC(=O)c1ccc2c(=O)[nH]c3nccc(Nc4ccc(NC(=O)c5ccccc5)cc4)c3c2c1` [Compound 285, 1-(4-benzamidophenylamino)-N-(2-(dimethylamino)ethyl)-6-oxo-5,6-dihydrobenzo[c][1,8]naphthyridine-9-carboxamide], the IC50 was less than 0.011 µM.

Take `NCCNC(=O)c1ccc2c(=O)[nH]c3nccc(Nc4ccc(NC(=O)c5ccccc5)cc4)c3c2c1` [Compound 284, N-(2-Aminoethyl)-1-(4-benzamidophenylamino)-6-oxo-5,6-dihydrobenzo[c][1,8]naphthyridine-9-carboxamide]: the IC50 was less than 0.011 µM.

For `O=c1[nH]c2ncccc2c2cc(NCc3ccc(F)cc3C(F)(F)F)ccc12` [Compound 464, 9-(4-Fluoro-2-(trifluoromethyl)benzylamino)benzo[c][1,8]naphthyridin-6(5H)-one], the half-maximal inhibitory concentration (IC50) was more than 0.1 µM.

Regarding `Cn1ccnc1Sc1ccc(Nc2ccnc3[nH]c(=O)c4ccccc4c23)cc1Cl` [Example 156, 1-[3-Chloro-4-(1-methyl-1H-imidazol-2-ylsulfanyl)-phenylamino]-5H-benzo[c][1,8]naphthyridin-6-one], the half-inhibitory concentration (IC50) was more than 0.1 µM.

Consider `O=C(Nc1ccc(Nc2ccnc3[nH]c(=O)c4ccccc4c23)cc1)C(CC1CCCO1)C(F)(F)F` (stereo not shown) [Compound 495, 3,3,3-Trifluoro-N-(4-(6-oxo-5,6-dihydrobenzo[c][1,8]naphthyridin-1-ylamino)phenyl)-2-((tetrahydrofuran-2-yl)methyl)propanamide], for which the IC50 was 0.011 to 0.1 µM.

With `O=C(Nc1ccc(Nc2ccnc3[nH]c(=O)c4ccccc4c23)cc1)c1ccccc1C(F)(F)F` [Compound 379, N-[4-(6-Oxo-5,6-dihydro-benzo[c][1,8]naphthyridin-1-ylamino)-phenyl]-2-trifluoromethyl-benzamide], the 50% inhibitory concentration (IC50) is less than 0.011 µM.

For `O=C(Nc1ccc(Nc2ccnc3[nH]c(=O)c4ccccc4c23)cc1)c1ccccc1F` [Compound 380, 2-Fluoro-N-[4-(6-oxo-5,6-dihydro-benzo[c][1,8]naphthyridin-1-ylamino)-phenyl]-benzamide], the IC50 is less than 0.011 µM.

In the case of `O=C(Nc1ccc(CNc2ccnc3[nH]c(=O)c4ccccc4c23)cc1)c1cc(F)cc(F)c1` [Compound 326, 3,5-Difluoro-N-(4-((6-oxo-5,6-dihydrobenzo[c][1,8]naphthyridin-1-ylamino)methyl)phenyl)benzamide], the half-maximal inhibitory concentration (IC50) was in the range of 0.011 to 0.1 µM.
